Where two headings read alike, the source gives them in different places. Marks after values point to notes of the source that are not given here.
Legend:
[1] = tested on: commercial broilers (trials 1 and 2), SPF broilers (trial 3); assay type: in vivo, chicken; conditions: all three trials, vs saline controls
2 week-old chickens = assay type: in vivo, chicken; conditions: for CBH-2 = (skin thickness, PHA-P injected foot) − (skin thickness, PSS injected foot) / CBH-1 = (skin thickness at 12 h post-injection, left foot) − (pre-injection skin thickness, left foot): 2 week-old chickens, mean ± standard deviation, n = 4; for CBH-1 = (skin thickness at 12 h post-injection, left foot) − (pre-injection skin thickness, left foot): PHA-P
chickens = tested on: chickens; parameters: species or system chicken; conditions: in vivo
[2] = tested on: commercial broilers (trials 1 and 2), SPF broilers (trial 3); conditions: in vivo
[3] = tested on: commercial broilers (trials 1 and 2), SPF broilers (trial 3); conditions: in vivo; remark: listed apart in the source
[4] = tested on: commercial broilers (trials 1 and 2), SPF broilers (trial 3); conditions: in vivo; remark: listed apart in the source
[5] = tested on: commercial broilers (trials 1 and 2), SPF broilers (trial 3); conditions: 7 dpi

O=P1(N(CCCl)CCCl)NCCCO1 (stereo not shown) [CP, Cyclophosphamide monohydrate]
bursa size [1]: significantly smaller | CBH-2 = (skin thickness, PHA-P injected foot) − (skin thickness, PSS injected foot) (2 week-old chickens; Trial 1, IBDV strain Variant E): .73 ± .01 | CBH-1 = (skin thickness at 12 h post-injection, left foot) − (pre-injection skin thickness, left foot) (2 week-old chickens; Trial 1, IBDV strain Variant E): .67 ± .07 | CBH-2 = (skin thickness, PHA-P injected foot) − (skin thickness, PSS injected foot) (2 week-old chickens; Trial 2, IBDV strain STC): .69 ± .2 | CBH-1 = (skin thickness at 12 h post-injection, left foot) − (pre-injection skin thickness, left foot) (2 week-old chickens; Trial 2, IBDV strain STC): .69 ± .18 | CBH-2 = (skin thickness, PHA-P injected foot) − (skin thickness, PSS injected foot) (2 week-old chickens; Trial 3, IBDV strain STC): .31 ± .07 | CBH-1 = (skin thickness at 12 h post-injection, left foot) − (pre-injection skin thickness, left foot) (2 week-old chickens; Trial 3, IBDV strain STC): .34 ± .06 | CBH response (2 week-old chickens; vs saline control group): small reduction | humoral immune response to NDV vaccination (chickens): significantly reduced | Proventriculus score (severity of proventricular lesions) [2]: 1.00^a | bursal microscopic lesions [3]: marked lymphocytic depletion and atrophy of the bursa | clinical appearance [4]: decreased feathering and appeared weak | thymus size [5]: smaller than the rest of the groups

Source: patent US20050214316A1 (priority 2003, published 2005)
